The record followed here is patent US8329755B2, “Methods for treating retroviral infections” (Roche Palo Alto LLC, priority 2004, dated 2012).

By melting point is commonly meant the temperature, or range, at which the solid turns liquid. In turn, `Cc1cc(NS(C)(=O)=O)ccc1NC(=O)Cc1ccc(C)c(Oc2cc(Cl)cc(C#N)c2)c1` [Compound I-237, 2-[3-(3-Chloro-5-cyano-phenoxy)-4-methyl-phenyl]-N-(4-methanesulfonylamino-2-methyl-phenyl)-acetamide] showed a melting point of 180 to 181.4 °C. The value for `Cc1cc(N(C)S(C)(=O)=O)ccc1NC(=O)Cc1ccc(C)c(Oc2cc(Cl)cc(C#N)c2)c1` [Compound I-238, 2-[3-(3-Chloro-5-cyano-phenoxy)-4-methyl-phenyl]-N-[4-(methanesulfonyl-methyl-amino)-2-methyl-phenyl]-acetamide] was 184 to 184.8 °C. The value for `O=C(Cc1cc2c(c(C(=O)c3ccc(Cl)cc3)c1)OCC2)Nc1ccccc1Cl` [Compound I-240, 2-[7-(4-Chloro-benzoyl)-2,3-dihydro-benzofuran-5-yl]-N-(2-chloro-phenyl)-acetamide] was 141.1 to 144.9 °C.

As to `NS(=O)(=O)c1ccc(NC(=O)Cc2cc3c(c(C(=O)c4ccc(Cl)cc4)c2)OCC3)cc1` [Compound I-241, 2-[7-(4-Chloro-benzoyl)-2,3-dihydro-benzofuran-5-yl]-N-(4-sulfamoyl-phenyl)-acetamide], the melting point was 259 to 261 °C. Take `N#Cc1cc(C#N)cc(Sc2cc(CC(=O)Nc3ccc(S(N)(=O)=O)cc3)ccc2Cl)c1` [Compound I-242, 2-[4-Chloro-3-(3,5-dicyano-phenylsulfanyl)-phenyl]-N-(4-sulfamoyl-phenyl)-acetamide]: the melting point lay in the range of 247.9 to 250.9 °C. With `NS(=O)(=O)c1ccc(NC(=O)Cc2ccc(Cl)c(Sc3cc(Cl)ccc3Br)c2)cc1` [Compound I-243, 2-[3-(2-Bromo-5-chloro-phenylsulfanyl)-4-chloro-phenyl]-N-(4-sulfamoyl-phenyl)-acetamide] the figure was 220 to 222.3 °C; with `O=C(Cc1ccc(Cl)c(Sc2cc(Cl)ccc2Br)c1)Nc1ccccc1Cl` [Compound I-244, 2-[3-(2-Bromo-5-chloro-phenylsulfanyl)-4-chloro-phenyl]-N-(2-chloro-phenyl)-acetamide], 172.2 to 172.8 °C. As to `O=C(Cc1ccc(Cl)c(C(=O)c2cc(Cl)cc(Cl)c2)c1)Nc1ccccc1Cl` [Compound I-247, 2-[4-Chloro-3-(3,5-dichloro-benzoyl)-phenyl]-N-(2-chloro-phenyl)-acetamide], the melting point lay within 197.2 to 198.1 °C. With `O=C(Cc1ccc(Cl)c(C(=O)c2cc(Cl)ccc2Cl)c1)Nc1ccccc1Cl` [Compound I-248, 2-[4-Chloro-3-(2,5-dichloro-benzoyl)-phenyl]-N-(2-chloro-phenyl)-acetamide], the melting point was in the range of 121 to 123.5 °C. The value for `Cc1cc(S(N)(=O)=O)ccc1NC(=O)Cc1ccc(Cl)c(C(=O)c2cc(Cl)ccc2Cl)c1` [Compound I-249, 2-[4-Chloro-3-(2,5-dichloro-benzoyl)-phenyl]-N-(2-methyl-4-sulfamoyl-phenyl)-acetamide] was 214.9 to 218.8 °C; that for `NS(=O)(=O)c1ccc(NC(=O)Cc2ccc(Cl)c(C(=O)c3cc(Cl)ccc3Cl)c2)cc1` [Compound I-250, 2-[4-Chloro-3-(2,5-dichloro-benzoyl)-phenyl]-N-(4-sulfamoyl-phenyl)-acetamide] was 213.9 to 216.1 °C. With `O=C(Cc1ccc(Cl)c(C(=O)c2cc(Cl)ccc2Cl)c1)Nc1ccccc1` [Compound I-251, 2-[4-Chloro-3-(2,5-dichloro-benzoyl)-phenyl]-N-phenyl-acetamide] the figure was 167.1 to 168.5 °C. The molecule `Cc1cc(S(N)(=O)=O)ccc1NC(=O)Cc1ccc(Cl)c(C(=O)c2cc(Cl)cc(Cl)c2)c1` [Compound I-252, 2-[4-Chloro-3-(3,5-dichloro-benzoyl)-phenyl]-N-(2-methyl-4-sulfamoyl-phenyl)-acetamide] had a melting point of 263 to 264.4 °C. The value for `NS(=O)(=O)c1ccc(NC(=O)Cc2ccc(Cl)c(C(=O)c3cc(Cl)ccc3Cl)c2)c(Cl)c1` [Compound I-253, 2-[4-Chloro-3-(2,5-dichloro-benzoyl)-phenyl]-N-(2-chloro-4-sulfamoyl-phenyl)-acetamide] was 197 to 199.6 °C; that for `Cc1cc(CC(=O)Nc2ccc(S(N)(=O)=O)cc2)cc(C(=O)c2ccc(Cl)cc2)c1` [Compound I-254, 2-[3-(4-Chloro-benzoyl)-5-methyl-phenyl]-N-(4-sulfamoyl-phenyl)-acetamide] was 260.9 to 263.3 °C. With `Cc1cc(CC(=O)Nc2ccc(S(N)(=O)=O)cc2C)cc(C(=O)c2ccccc2Cl)c1` [Compound I-256, 2-[3-(2-Chloro-benzoyl)-5-methyl-phenyl]-N-(2-methyl-4-sulfamoyl-phenyl)-acetamide] the figure was 207.7 to 209.3 °C. The molecule `Cc1cc(CC(=O)Nc2ccccc2Cl)cc(C(=O)c2ccc(Cl)cc2)c1` [Compound I-258, 2-[3-(4-Chloro-benzoyl)-5-methyl-phenyl]-N-(2-chloro-phenyl)-acetamide] had a melting point of 134.7 to 135.5 °C.

Turning to `Cc1cc(CC(=O)Nc2ccccc2Cl)cc(C(=O)c2ccccc2Cl)c1` [Compound I-259, 2-[3-(2-Chloro-benzoyl)-5-methyl-phenyl]-N-(2-chloro-phenyl)-acetamide], the melting point was in the range of 125.1 to 127 °C. With `Cc1cc(CC(=O)Nc2ccc(S(N)(=O)=O)cc2C)cc(C(=O)c2cccc(Cl)c2)c1` [Compound I-260, 2-[3-(3-Chloro-benzoyl)-5-methyl-phenyl]-N-(2-methyl-4-sulfamoyl-phenyl)-acetamide] the figure was 210.3 to 211.6 °C.

Consider `Cc1cc(CC(=O)Nc2ccc(S(N)(=O)=O)cc2)cc(C(=O)c2cccc(Cl)c2)c1` [Compound I-261, 2-[3-(3-Chloro-benzoyl)-5-methyl-phenyl]-N-(4-sulfamoyl-phenyl)-acetamide], for which the melting point lay in the range of 211 to 213.1 °C. Consider `Cc1cc(CC(=O)Nc2ccccc2Cl)cc(C(=O)c2cccc(Cl)c2)c1` [Compound I-262, 2-[3-(3-Chloro-benzoyl)-5-methyl-phenyl]-N-(2-chloro-phenyl)-acetamide], for which the melting point lay within 113 to 113.8 °C.

As to `Cc1cc(CC(=O)Nc2ccc(S(N)(=O)=O)cc2)cc(C(=O)c2ccccc2Cl)c1` [Compound I-263, 2-[3-(2-Chloro-benzoyl)-5-methyl-phenyl]-N-(4-sulfamoyl-phenyl)-acetamide], the melting point is 165 to 167 °C. The value for `COc1ccc(CC(=O)Nc2ccc(S(N)(=O)=O)cc2C)cc1C(=O)c1cc(Br)ccc1Cl` [Compound I-264, 2-[3-(5-Bromo-2-chloro-benzoyl)-4-methoxy-phenyl]-N-(2-methyl-4-sulfamoyl-phenyl)-acetamide] was 177 to 177.9 °C; that for `Cc1cc(S(N)(=O)=O)ccc1NC(=O)Cc1ccc(C)c(C(=O)c2cc(C#N)ccc2C)c1` [Compound I-265, 2-[3-(5-Cyano-2-methyl-benzoyl)-4-methyl-phenyl]-N-(2-methyl-4-sulfamoyl-phenyl)-acetamide] was 224.3 to 228.1 °C. With `Cc1ccc(C#N)cc1C(=O)c1cc(CC(=O)Nc2ccc(S(N)(=O)=O)cc2)ccc1C` [Compound I-266, 2-[3-(5-Cyano-2-methyl-benzoyl)-4-methyl-phenyl]-N-(4-sulfamoyl-phenyl)-acetamide] the figure was 229.6 to 231.1 °C; with `Cc1ccc(C#N)cc1C(=O)c1cc(CC(=O)Nc2ccccc2Cl)ccc1C` [Compound I-267, N-(2-Chloro-phenyl)-2-[3-(5-cyano-2-methyl-benzoyl)-4-methyl-phenyl]-acetamide], 129.4 to 131.6 °C; with `Cc1cc(CC(=O)Nc2ccc(S(N)(=O)=O)cc2)cc(C(=O)c2cc(Cl)cc(Cl)c2)c1` [Compound I-269, 2-[3-(3,5-Dichloro-benzoyl)-5-methyl-phenyl]-N-(4-sulfamoyl-phenyl)-acetamide], 226 to 227.9 °C.
